Reference: the supplement of paper PMC5579334

Legend:
HS-PSS [1] = experiment: relative IC50 (inflection point of fitted dose-response curve, CellTox-Green cytotoxicity, 72 h; top asymptote may be below 50%); higher = less potent
Method in brief: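 MPNST cell lines and primary human Schwann cells were incubated 72 h at 37 °C in 384-well plates holding five 10-fold compound dilutions. CellTox-Green was added before seeding at a final 1:1000 dilution and reported fluorescence from DNA released by disrupted cells. Signals were scaled to vehicle and positive-control wells, and cultures failing plate quality control were dropped. Drug sensitivity score and relative IC50 come from four-parameter logistic fits, with IC50 censored at the top concentration.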

YST-1 = experiment: relative IC50 (inflection point of fitted dose-response curve, CellTiter-Glo viability, 72 h; top asymptote may be below 50% inhibition); higher = less potent
Method in brief: (§1)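 MPNST cell lines and primary human Schwann cells (750–1000 cells per well) went into 384-well plates preprinted with each compound at five concentrations in 10-fold steps. Plates were incubated 72 h at 37 °C, 5% CO2. Viability was read as CellTiter-Glo ATP luminescence, scaled between vehicle and positive-control wells, with duplicates averaged where present. Percent inhibition is at the top concentration; drug sensitivity score and relative IC50 (censored at top concentration) come from four-parameter logistic fits.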

HS-Sch-2 = experiment: as above
Method in brief: as §1

HS-PSS [2] = experiment: as above
Method in brief: as §1

SMILES	relative IC50 (HS-PSS [1]) [nM]	relative IC50 (YST-1) [nM]	relative IC50 (HS-Sch-2) [nM]	relative IC50 (HS-PSS [2]) [nM]
CN(C)c1cc2c(cc1Sc1nc3c(N)nccc3n1CCNCC(C)(C)C)OCO2 [CUDC-305]	384	516	219	510
NCCNc1ccc(NCCN)c2c1C(=O)c1ccncc1C2=O [Pixantrone]	> 10000	3300	3480	3000
Cc1c(F)cc(C(=O)NC2CC2)cc1-c1ccc(C(=O)NCC(C)(C)C)cn1 [Losmapimod]	> 10000	24.9	> 10000	> 10000
COc1cc2c(Nc3ccc(Cl)c(Cl)c3F)ncnc2cc1OC[C@H]1C[C@@H]2CN(C)C[C@@H]2C1 [XL-647]	> 1000	101	367	406
COc1ccc(-c2nc(N3CCOCC3)c3sc(CN(C)c4ncc(C(=O)NO)cn4)cc3n2)cn1 [CUDC-907]	66.7	3.12	24.3	20.7
Cc1ccc(C(=O)Nc2ccc(Oc3cc4cnn(C)c4cc3-c3cn[nH]c3)c(F)c2)c(=O)n1-c1ccc(F)cc1 [Merestinib]	> 1000	150	371	245
Cc1nn(C)c(COc2ccc(N3CCN(S(=O)(=O)N(C)C)CC3)cc2)c1-c1cccc2c(CCCOc3cccc4ccccc34)c(C(=O)O)n(CCN3CCOCC3)c12	14900	12700	15400	17800
CN(C)C(=O)c1cc2cnc(Nc3ccc(N4CCNCC4)cn3)nc2n1C1CCCC1 [Ribociclib]	> 10000	1530	1610	2030
Nc1ncnc2c1c(-c1cccc(OCc3ccccc3)c1)cn2[C@H]1C[C@@H](CN2CCC2)C1 [NVP-AEW541]	2380	654	1960	3020
CCN(CC)CCCC(C)Nc1c2ccc(Cl)cc2nc2ccc(OC)cc12 (stereo not given) [Mepacrine]	1580	1790	1440	1440
Cc1cc(-c2ncc(CC(=O)Nc3ccc(-c4cnccn4)cn3)cc2C)ccn1 [NVP-LGK974]	> 10000	> 10000	2920	1970
CCCCCCCCCCCCCCCCCCOP(=O)([O-])OC1CC[N+](C)(C)CC1 [Perifosine]	> 2500	> 2500	> 2500	> 2500
COc1ccc(-c2ccc3ncc4c(c3c2)n(-c2ccc(N3CCNCC3)c(C(F)(F)F)c2)c(=O)n4C)cn1 [NVP-BGT226]	335	17.9	12.5	40.4
c1ccc(Cn2c(-c3ccc(OC[C@H](C4CCNCC4)n4c(-c5ccccc5)nc5ccccc54)cc3)nc3ccccc32)cc1 [deltarasin]	2470	3360	3060	2470
Cn1cc(C2=Nc3cc(NC(=O)C(N)C4CCCCC4)cc4c3C2=CNNC4=O)cn1 (stereo not given)	> 10000	163	108	77.1
CN(CC(=O)N(Cc1ccc(C2CCCCC2)cc1)c1ccc(C(=O)O)cc1)S(=O)(=O)c1c(F)c(F)c(F)c(F)c1F [SH-4-54]	7280	3260	5270	7510
Nc1cc(F)ccc1NC(=O)/C=C/c1cnn(C/C=C/c2ccccc2)c1 [RGFP966]	> 10000	1570	1750	378
N[C@@H](Cc1ccc(N(CCCl)CCCl)cc1)C(=O)O [Melphalan]	> 12500	> 12500	> 12500	> 12500
O=C(NOCCO)c1ccc2cncn2c1Nc1ccc(I)cc1F [GDC-0623]	> 2500	> 2500	368	300
Cn1cc(-c2cnn3c(N)c(Br)c([C@@H]4CCCNC4)nc23)cn1 [MK-8776]	> 2500	362	360	> 2500
CCn1c(=O)c(-c2cc[nH]n2)cc2c(C)nc(N)nc21 [Voxtalisib]	> 10000	1120	2180	2330
CCn1c(=O)c(-c2ccc(Cl)cc2Cl)cc2cnc(Nc3ccc(N4CCNCC4)c(F)c3)nc21 [FRAX486]	> 5000	> 5000	133	1750
COc1cccc2c1C(=O)c1c(O)c3c(c(O)c1C2=O)C[C@@](O)(/C(CO)=N/NC(=O)CCCCCN1C(=O)C=CC1=O)C[C@@H]3O[C@H]1C[C@H](N)[C@H](O)[C@H](C)O1 [Aldoxorubicin]	181	51.5	105	158
COc1cc(C(=O)O)ccc1NC(=O)[C@@H]1N[C@@H](CC(C)(C)C)[C@](C#N)(c2ccc(Cl)cc2F)[C@H]1c1cccc(Cl)c1F [Idasanutlin]	> 10000	62	> 10000	178
CNC(=O)c1ccccc1Nc1nc(Nc2ccc3c(c2OC)CCC[C@H](N2CCN(CCO)CC2)C3)ncc1Cl	1090	633	979	155

SMILES	relative IC50 (HS-PSS [1]) [nM]	relative IC50 (YST-1) [nM]	relative IC50 (HS-Sch-2) [nM]	relative IC50 (HS-PSS [2]) [nM]
CCNC(=O)c1noc(-c2cc(C(C)C)c(O)cc2O)c1-c1ccc(CN2CCOCC2)cc1 [Luminespib]	51.8	10.3	11	39.3
COc1cc(OC)c(/C=C/S(=O)(=O)Cc2ccc(OC)c(NCC(=O)O)c2)c(OC)c1 [Rigosertib]	> 10000	59.2	92.2	130
O=C(/C=C\n1cnc(-c2cc(C(F)(F)F)cc(C(F)(F)F)c2)n1)NNc1cnccn1 [Selinexor]	1460	115	211	404
Cc1sc2c(c1C)C(c1ccc(Cl)cc1)=N[C@@H](CC(=O)OC(C)(C)C)c1nnc(C)n1-2 [JQ1]	> 10000	280	331	379
CC(C)N(C[C@H]1O[C@@H](n2cnc3c(N)ncnc32)[C@H](O)[C@@H]1O)[C@H]1C[C@@H](CCc2nc3cc(C(C)(C)C)ccc3[nH]2)C1 [Pinometostat]	> 1000	> 1000	> 1000	> 1000
COc1cc(Br)c(Nc2nc(-c3c(C)nc4ncccn34)cs2)c(Br)c1 [PTC-209]	> 10000	2580	1410	1670
Oc1ncc(N(CCCl)CCCl)c(O)n1 [Uramustine]	> 10000	> 10000	> 10000	> 10000
CCn1c(-c2nonc2N)nc2c(C#CC(C)(C)O)ncc(OC[C@H]3CCCNC3)c21	> 10000	> 10000	1620	> 10000
CC(=O)O[C@]1(C(C)=O)CC[C@H]2[C@@H]3C=C(C)C4=CC(=O)CC[C@]4(C)[C@H]3CC[C@@]21C [Megestrol acetate]	> 10000	> 10000	> 10000	> 10000
S=C(NCc1ccc2c(c1)OCO2)N1CCN(c2ncnc3c2oc2ccccc23)CC1 [Amuvatinib]	> 10000	3540	2070	1010
O=C(Nc1cccc(Nc2ncc(Br)c(NCCc3cnc[nH]3)n2)c1)N1CCCC1 [BX-912]	> 10000	867	2750	1930
COc1ccc(C[C@H](NC(=O)[C@H](C)NC(=O)CN2CCOCC2)C(=O)N[C@@H](Cc2ccccc2)C(=O)[C@@]2(C)CO2)cc1 [ONX-0914]	307	309	158	335
CCn1cc(-c2ccnc3[nH]c(-c4cccc(CN(C)C)c4)cc23)c(-c2ccc(NC(=O)N(C)C)cc2)n1	> 1000	3.97	157	142
NC[C@@](O)(c1ccc(Cl)cc1)c1ccc(-c2cn[nH]c2)cc1	2780	2970	1510	2030
C[C@@H](Nc1cc(F)cc(F)c1)c1cc(C(=O)N(C)C)cc2c(=O)cc(N3CCOCC3)oc12 [AZD-8186]	> 1000	357	> 1000	> 1000
CC[C@@]1(O)C(=O)OCc2c1cc1n(c2=O)Cc2cc3ccccc3nc2-1 [Camptothecin]	358	40.1	63.4	199
CN1CCN(c2cc(C(=O)Nc3ccc4c(c3)-c3c(c(C(N)=O)nn3-c3ccc(F)cc3)CC4)c(Cl)cn2)CC1 [PHA 408]	3260	3080	3280	2400
COc1cc(N2CCN(C)CC2)ccc1Nc1nccc(-c2cn(C)c3cnccc23)n1 [AZ191]	2460	3400	3350	2610
Cc1cc(Nc2cc(N3CCN(C)CC3)nc(/C=C/c3ccccc3)n2)n[nH]1 [ENMD-2076]	2290	361	763	1060
Cc1cc(Nc2cc(N3CCN(C)CC3)nc(Sc3ccc(NC(=O)C4CC4)cc3)n2)n[nH]1 [Tozasertib]	> 10000	42.1	552	315
Cc1sc2c(c1C)C(c1ccc(Cl)cc1)=N[C@@H](CC(=O)Nc1ccc(O)cc1)c1nnc(C)n1-2 [OTX015]	> 10000	162	223	321
CNc1ncc2cc(-c3cc(NC(=O)NCCC(C)(C)C)c(F)cc3C)c(C)nc2n1	3590	561	235	3820
CC(=O)N(O)CCCCCNC(=O)CCC(=O)N(O)CCCCCNC(=O)CCC(=O)N(O)CCCCCN [Deferoxamine]	3240	1970	1070	1480
C1=N/C2=N/c3ccc(OCCN4CCCC4)c(c3)COC/C=C/COCc3cccc(c3)C(=C1)N2 [Pacritinib]	2780	1940	1760	1180
CC(C)Nc1cc(-c2c[nH]c(C(=O)N[C@H](CO)c3cccc(Cl)c3)c2)c(Cl)cn1 [Ulixertinib]	> 10000	1380	1290	3530
